Experimental data from ChEMBL document CHEMBL3045535, “Evaluation of lufenuron as a chemosterilant against fruit flies of the genus Anastrepha (Diptera: Tephritidae)” (2010).
Active and inactive are the calls of the source. The rule behind the calls is not given here.

What was measured:
Anastrepha striata [1] = assay: Reduction of fertility in 7 days old adult of Anastrepha striata assessed as reduction of egg hatching at 10 mg/g treated with diet measured after 5 days oviposition; type: functional; parameters: scale not given: the % may be the effect or the level left
Anastrepha striata [2] = assay: Reduction of fertility in 7 days old adult of Anastrepha striata assessed as reduction of egg hatching at 30 mg/g treated with diet measured after 5 days oviposition; type: functional; parameters: scale not given: the % may be the effect or the level left
Anastrepha serpentina [3] = assay: Reduction of fertility in 7 days old adult of Anastrepha serpentina assessed as reduction of egg hatching at 30 mg/g treated with diet measured after 3 days oviposition; type: functional; parameters: scale not given: the % may be the effect or the level left
Anastrepha obliqua [4] = assay: Reduction of fertility in 7 days old adult of Anastrepha obliqua assessed as reduction of egg hatching at 5 mg/g treated with diet measured after 9 days oviposition; type: functional; parameters: scale not given: the % may be the effect or the level left
Anastrepha ludens [5] = assay: Reduction of fertility in 7 days old adult of Anastrepha ludens assessed as reduction of egg hatching at 0.1 mg/g treated with diet measured after 5 days oviposition; type: functional; parameters: scale not given: the % may be the effect or the level left
Anastrepha serpentina [6] = assay: Reduction of fertility in 7 days old adult of Anastrepha serpentina assessed as reduction of egg hatching at 10 mg/g treated with diet measured after 7 days oviposition; type: functional; parameters: scale not given: the % may be the effect or the level left
Anastrepha ludens [7] = assay: Effect on fertility in 7 days old adult female of Anastrepha ludens at 30 mg/g treated with diet after 24 hr in presence of untreated adult male of Anastrepha ludens; type: functional, organism-based
Anastrepha ludens [8] = assay: Reduction of fertility in 7 days old adult of Anastrepha ludens assessed as reduction of egg hatching at 0.5 mg/g treated with diet measured after 11 days oviposition; type: functional; parameters: scale not given: the % may be the effect or the level left
Anastrepha serpentina [9] = assay: Reduction of fertility in 7 days old adult of Anastrepha serpentina assessed as reduction of egg hatching at 0.1 mg/g treated with diet measured after 1 day oviposition; type: functional; parameters: scale not given: the % may be the effect or the level left
Anastrepha ludens [10] = assay: Reduction of fertility in 7 days old adult of Anastrepha ludens assessed as reduction of egg hatching at 30 mg/g treated with diet measured after 1 day oviposition; type: functional; parameters: scale not given: the % may be the effect or the level left
Anastrepha striata [11] = assay: Reduction of fertility in 7 days old adult of Anastrepha striata assessed as reduction of egg hatching at 5 mg/g treated with diet measured after 7 days oviposition; type: functional; parameters: scale not given: the % may be the effect or the level left
Anastrepha obliqua [12] = assay: Reduction of fertility in 7 days old adult of Anastrepha obliqua assessed as reduction of egg hatching at 10 mg/g treated with diet measured after 11 days oviposition; type: functional; parameters: scale not given: the % may be the effect or the level left
Anastrepha ludens [13] = assay: Reduction of fertility in 7 days old adult of Anastrepha ludens assessed as reduction of egg hatching at 1 mg/g treated with diet measured after 9 days oviposition; type: functional; parameters: scale not given: the % may be the effect or the level left
Anastrepha striata [14] = assay: Reduction of fertility in 7 days old adult of Anastrepha striata assessed as reduction of egg hatching at 0.1 mg/g treated with diet measured after 7 days oviposition; type: functional; parameters: scale not given: the % may be the effect or the level left
Anastrepha serpentina [15] = assay: Reduction of fertility in 7 days old adult of Anastrepha serpentina assessed as reduction of egg hatching at 30 mg/g treated with diet measured after 5 days oviposition; type: functional; parameters: scale not given: the % may be the effect or the level left
Anastrepha striata [16] = assay: Reduction of fertility in 7 days old adult of Anastrepha striata assessed as reduction of egg hatching at 1 mg/g treated with diet measured after 9 days oviposition; type: functional; parameters: scale not given: the % may be the effect or the level left
Anastrepha striata [17] = assay: Reduction of fertility in 7 days old adult of Anastrepha striata assessed as reduction of egg hatching at 1 mg/g treated with diet measured after 1 day oviposition; type: functional; parameters: scale not given: the % may be the effect or the level left
Anastrepha striata [18] = assay: Reduction of fertility in 7 days old adult of Anastrepha striata assessed as reduction of egg hatching at 5 mg/g treated with diet measured after 3 days oviposition; type: functional; parameters: scale not given: the % may be the effect or the level left
Anastrepha striata [19] = assay: Reduction of fertility in 7 days old adult of Anastrepha striata assessed as reduction of egg hatching at 0.5 mg/g treated with diet measured after 7 days oviposition; type: functional; parameters: scale not given: the % may be the effect or the level left
Anastrepha obliqua [20] = assay: Reduction of fertility in 7 days old adult of Anastrepha obliqua assessed as reduction of egg hatching at 1 mg/g treated with diet measured after 3 days oviposition; type: functional; parameters: scale not given: the % may be the effect or the level left
Anastrepha striata [21] = assay: Reduction of fertility in 7 days old adult of Anastrepha striata assessed as reduction of egg hatching at 1 mg/g treated with diet measured after 11 days oviposition; type: functional; parameters: scale not given: the % may be the effect or the level left
Anastrepha obliqua [22] = assay: Reduction of fertility in 7 days old adult of Anastrepha obliqua assessed as reduction of egg hatching at 0.1 mg/g treated with diet measured after 3 days oviposition; type: functional; parameters: scale not given: the % may be the effect or the level left
Anastrepha obliqua [23] = assay: Reduction of fertility in 7 days old adult of Anastrepha obliqua assessed as reduction of egg hatching at 0.1 mg/g treated with diet measured after 1 day oviposition; type: functional; parameters: scale not given: the % may be the effect or the level left
Anastrepha serpentina [24] = assay: Reduction of fertility in 7 days old adult of Anastrepha serpentina assessed as reduction of egg hatching at 1 mg/g treated with diet measured after 7 days oviposition; type: functional; parameters: scale not given: the % may be the effect or the level left
Anastrepha striata [25] = assay: Reduction of fertility in 7 days old adult of Anastrepha striata assessed as reduction of egg hatching at 0.1 mg/g treated with diet measured after 1 day oviposition; type: functional; parameters: scale not given: the % may be the effect or the level left
Anastrepha obliqua [26] = assay: Reduction of fertility in 7 days old adult of Anastrepha obliqua assessed as reduction of egg hatching at 0.1 mg/g treated with diet measured after 9 days oviposition; type: functional; parameters: scale not given: the % may be the effect or the level left
Anastrepha obliqua [27] = assay: Reduction of fertility in 7 days old adult of Anastrepha obliqua assessed as reduction of egg hatching at 0.1 mg/g treated with diet measured after 7 days oviposition; type: functional; parameters: scale not given: the % may be the effect or the level left
Anastrepha striata [28] = assay: Reduction of fertility in 7 days old adult of Anastrepha striata assessed as reduction of egg hatching at 30 mg/g treated with diet measured after 3 days oviposition; type: functional; parameters: scale not given: the % may be the effect or the level left
Anastrepha striata [29] = assay: Reduction of fertility in 7 days old adult of Anastrepha striata assessed as reduction of egg hatching at 5 mg/g treated with diet measured after 11 days oviposition; type: functional; parameters: scale not given: the % may be the effect or the level left
Anastrepha striata [30] = assay: Reduction of fertility in 7 days old adult of Anastrepha striata assessed as reduction of egg hatching at 10 mg/g treated with diet measured after 1 day oviposition; type: functional; parameters: scale not given: the % may be the effect or the level left
Anastrepha striata [31] = assay: Reduction of fertility in 7 days old adult of Anastrepha striata assessed as reduction of egg hatching at 5 mg/g treated with diet measured after 9 days oviposition; type: functional; parameters: scale not given: the % may be the effect or the level left
Anastrepha serpentina [32] = assay: Reduction of fertility in 7 days old adult of Anastrepha serpentina assessed as reduction of egg hatching at 5 mg/g treated with diet measured after 11 days oviposition; type: functional; parameters: scale not given: the % may be the effect or the level left
Anastrepha ludens [33] = assay: Reduction of fertility in 7 days old adult of Anastrepha ludens assessed as reduction of egg hatching at 0.1 mg/g treated with diet measured after 7 days oviposition; type: functional; parameters: scale not given: the % may be the effect or the level left
Anastrepha serpentina [34] = assay: Effect on fecundity in 7 days old adult of Anastrepha serpentina at 0.1 to 30 mg/g treated with diet after 24 hr; type: functional, organism-based
Anastrepha ludens [35] = assay: Reduction of fertility in 7 days old adult of Anastrepha ludens assessed as reduction of egg hatching at 5 mg/g treated with diet measured after 1 day oviposition; type: functional; parameters: scale not given: the % may be the effect or the level left
Anastrepha ludens [36] = assay: Reduction of fertility in 7 days old adult of Anastrepha ludens assessed as reduction of egg hatching at 10 mg/g treated with diet measured after 7 days oviposition; type: functional; parameters: scale not given: the % may be the effect or the level left
Anastrepha ludens [37] = assay: Reduction of fertility in 7 days old adult of Anastrepha ludens assessed as reduction of egg hatching at 0.1 mg/g treated with diet measured after 3 days oviposition; type: functional; parameters: scale not given: the % may be the effect or the level left
Anastrepha serpentina [38] = assay: Effect on fertility in 7 days old adult male of Anastrepha serpentina at 30 mg/g treated with diet after 24 hr in presence of untreated adult female of Anastrepha serpentina; type: functional, organism-based
Anastrepha serpentina [39] = assay: Reduction of fertility in 7 days old adult of Anastrepha serpentina assessed as reduction of egg hatching at 0.1 mg/g treated with diet measured after 9 days oviposition; type: functional; parameters: scale not given: the % may be the effect or the level left
Anastrepha striata [40] = assay: Effect on fecundity in 7 days old adult male of Anastrepha striata at 30 mg/g treated with diet after 24 hr in presence of untreated adult female of Anastrepha striata; type: functional, organism-based
Anastrepha striata [41] = assay: Reduction of fertility in 7 days old adult of Anastrepha striata assessed as reduction of egg hatching at 1 mg/g treated with diet measured after 7 days oviposition; type: functional; parameters: scale not given: the % may be the effect or the level left

## O=C(NC(=O)c1c(F)cccc1F)Nc1cc(Cl)c(OC(F)(F)C(F)C(F)(F)F)cc1Cl (racemic) [LUFENURON]
Anastrepha striata [1]
  Activity: 2%
Anastrepha striata [2]
  Activity: 4%
Anastrepha serpentina [3]
  Activity: 72.3%
Anastrepha obliqua [4]
  Activity: 0.7%
Anastrepha ludens [5]
  Activity: 30.7%
Anastrepha serpentina [6]
  Activity: 65.8%
Anastrepha ludens [7]
  Activity: inactive
Anastrepha ludens [8]
  Activity: 26.7%
Anastrepha serpentina [9]
  Activity: 98.9%
Anastrepha ludens [10]
  Activity: 3%
Anastrepha striata [11]
  Activity: 0.7%
Anastrepha obliqua [12]
  Activity: 0.7%
Anastrepha ludens [13]
  Activity: 20%
Anastrepha striata [14]
  Activity: 72%
Anastrepha serpentina [15]
  Activity: 78.4%
Anastrepha striata [16]
  Activity: 4.7%
Anastrepha striata [17]
  Activity: 6.7%
Anastrepha striata [18]
  Activity: 4.7%
Anastrepha striata [19]
  Activity: 19.3%
Anastrepha obliqua [20]
  Activity: 0%
Anastrepha striata [21]
  Activity: 8.7%
Anastrepha obliqua [22]
  Activity: 7.3%
Anastrepha obliqua [23]
  Activity: 14.7%
Anastrepha serpentina [24]
  Activity: 92.5%
Anastrepha striata [25]
  Activity: 48.7%
Anastrepha obliqua [26]
  Activity: 6%
Anastrepha obliqua [27]
  Activity: 8%
Anastrepha striata [28]
  Activity: 8.7%
Anastrepha striata [29]
  Activity: 6.7%
Anastrepha striata [30]
  Activity: 2%
Anastrepha striata [31]
  Activity: 8.7%
Anastrepha serpentina [32]
  Activity: 86.7%
Anastrepha ludens [33]
  Activity: 43.3%
Anastrepha serpentina [34]
  Activity: Active
Anastrepha ludens [35]
  Activity: 19.3%
Anastrepha ludens [36]
  Activity: 13.3%
Anastrepha ludens [37]
  Activity: 18.7%
Anastrepha serpentina [38]
  Activity: inactive
Anastrepha serpentina [39]
  Activity: 81.7%
Anastrepha striata [40]
  Activity: inactive
Anastrepha striata [41]
  Activity: 1.3%
